Source: patent US12097241B2, “Methods of treating kidney failure, and/or improving or stablizing renal function using modified relaxin polypeptides” (BRISTOL-MYERS SQUIBB COMPANY, priority 2017, dated 2024)

Biological target: T1, human RXFP1 receptor (Homo sapiens, UniProt Q9HBX9)
T1 construct: expressed in transfected cells
T1 sequence (Q9HBX9 1-757): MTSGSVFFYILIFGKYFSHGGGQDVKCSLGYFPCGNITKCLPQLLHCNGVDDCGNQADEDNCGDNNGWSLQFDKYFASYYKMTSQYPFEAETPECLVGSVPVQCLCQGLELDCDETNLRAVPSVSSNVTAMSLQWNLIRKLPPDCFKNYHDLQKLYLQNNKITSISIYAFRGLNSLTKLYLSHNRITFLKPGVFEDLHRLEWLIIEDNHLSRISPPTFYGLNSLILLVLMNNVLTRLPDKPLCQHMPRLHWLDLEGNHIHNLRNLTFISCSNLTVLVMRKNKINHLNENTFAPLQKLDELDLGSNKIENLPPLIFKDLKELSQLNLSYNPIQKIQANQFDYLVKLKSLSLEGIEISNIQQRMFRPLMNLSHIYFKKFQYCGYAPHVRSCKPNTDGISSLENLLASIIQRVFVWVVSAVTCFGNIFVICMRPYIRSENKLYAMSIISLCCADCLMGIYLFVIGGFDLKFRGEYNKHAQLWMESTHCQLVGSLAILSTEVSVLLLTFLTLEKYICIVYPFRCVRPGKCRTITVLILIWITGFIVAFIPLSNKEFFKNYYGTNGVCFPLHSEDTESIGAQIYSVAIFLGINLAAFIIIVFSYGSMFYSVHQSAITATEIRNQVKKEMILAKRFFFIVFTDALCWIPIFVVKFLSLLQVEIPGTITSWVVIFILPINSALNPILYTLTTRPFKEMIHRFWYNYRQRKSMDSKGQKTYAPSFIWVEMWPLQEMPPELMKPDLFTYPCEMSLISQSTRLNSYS
Assay: Intracellular cAMP accumulation assay
Assay type: cell-based

Row | Structure (SMILES) | EC50 [nM]
1 | CC[C@H](C)[C@@H]1NC(=O)[C@H](C)NC(=O)[C@H]([C@@H](C)CC)NC(=O)[C@H](CCC(N)=O)NC(=O)[C@H](C)NC(=O)[C@H](CCCNC(=N)N)NC(=O)[C@H](C(C)C)NC(=O)[C@H](CC(C)C)NC(=O)[C@H](CCC(=O)O)NC(=O)[C@H](CCCNC(=N)N)NC(=O)CNC(=O)[C@@H](NC(=O)[C@H](CC(C)C)NC(=O)[C@H](CCCCN)NC(=O)[C@@H](NC(=O)[C@@H](NC(=O)[C@H](CCC(=O)O)NC(=O)[C@H](CCC(=O)O)NC(=O)[C@H](CCSC)NC(=O)[C@H](Cc2c[nH]c3ccccc23)NC(=O)[C@H](CO)NC(=O)[C@H](C)N)C(C)C)[C@@H](C)CC)CSSC[C@@H]2NC(=O)[C@@H](NC(=O)[C@H](CCCCN)NC(=O)[C@H](CC(N)=O)NC(=O)[C@H](C)NC(=O)[C@H](CC(C)C)NC(=O)[C@H](C)NC(=O)[C@H](CO)NC(=O)[C@H](Cc3ccc(O)cc3)NC(=O)[C@H](CC(C)C)NC(=O)[C@@H](N)Cc3ccc(C(C)=NOCCNC(=O)[C@H](CCC(=O)O)NC(=O)CNC(=O)CNC(=O)[C@H](CO)NC(=O)CC[C@H](NC(=O)CCCCCCCCCCCCCC(=O)O)C(=O)O)cc3)CSSC[C@H](NC(=O)CNC(=O)[C@H](C(C)C)NC(=O)[C@H](Cc3c[nH]cn3)NC2=O)C(=O)N[C@@H]([C@@H](C)O)C(=O)N[C@@H](CCCCN)C(=O)N[C@@H](CCCNC(=N)N)C(=O)N[C@@H](CO)C(=O)N[C@@H](CC(C)C)C(=O)N[C@@H](C)C(=O)N[C@@H](CCCNC(=N)N)C(=O)N[C@@H](Cc2ccccc2)C(=O)N[C@H](C(=O)O)CSSC[C@@H](C(=O)NCC(=O)N[C@@H](CCSC)C(=O)N[C@@H](CO)C(=O)N[C@H](C(=O)N[C@@H](Cc2c[nH]c3ccccc23)C(=O)N[C@@H](CO)C(=O)O)[C@@H](C)O)NC1=O [AQ1-EGGS-Glu^γ-C14-COOH] | 0.33
2 | CC[C@H](C)[C@@H]1NC(=O)[C@H](C)NC(=O)[C@H]([C@@H](C)CC)NC(=O)[C@H](CCC(N)=O)NC(=O)[C@H](C)NC(=O)[C@H](CCCNC(=N)N)NC(=O)[C@H](C(C)C)NC(=O)[C@H](CC(C)C)NC(=O)[C@H](CCC(=O)O)NC(=O)[C@H](CCCNC(=N)N)NC(=O)CNC(=O)[C@@H](NC(=O)[C@H](CC(C)C)NC(=O)[C@H](CCCCN)NC(=O)[C@@H](NC(=O)[C@@H](NC(=O)[C@H](CCC(=O)O)NC(=O)[C@H](CCC(=O)O)NC(=O)[C@H](CCSC)NC(=O)[C@H](Cc2c[nH]c3ccccc23)NC(=O)[C@H](CO)NC(=O)[C@H](C)N)C(C)C)[C@@H](C)CC)CSSC[C@@H]2NC(=O)[C@@H](NC(=O)[C@H](CCCCN)NC(=O)[C@H](CC(N)=O)NC(=O)[C@H](C)NC(=O)[C@H](CC(C)C)NC(=O)[C@H](C)NC(=O)[C@H](CO)NC(=O)[C@H](Cc3ccc(O)cc3)NC(=O)[C@H](CC(C)C)NC(=O)[C@@H](N)Cc3ccc(/C(C)=N/OCCNC(=O)[C@H](CCCCN)NC(=O)CNC(=O)CNC(=O)CNC(=O)[C@H](CO)NC(=O)CC[C@H](NC(=O)CCCCCCCCCCCCCC(=O)O)C(=O)O)cc3)CSSC[C@H](NC(=O)CNC(=O)[C@H](C(C)C)NC(=O)[C@H](Cc3c[nH]cn3)NC2=O)C(=O)N[C@@H]([C@@H](C)O)C(=O)N[C@@H](CCCCN)C(=O)N[C@@H](CCCNC(=N)N)C(=O)N[C@@H](CO)C(=O)N[C@@H](CC(C)C)C(=O)N[C@@H](C)C(=O)N[C@@H](CCCNC(=N)N)C(=O)N[C@@H](Cc2ccccc2)C(=O)N[C@H](C(=O)O)CSSC[C@@H](C(=O)NCC(=O)N[C@@H](CCSC)C(=O)N[C@@H](CO)C(=O)N[C@H](C(=O)N[C@@H](Cc2c[nH]c3ccccc23)C(=O)N[C@@H](CO)C(=O)O)[C@@H](C)O)NC1=O [AQ1-KGGGS-Glu^γ-C14-COOH] | 0.34
3 | CC[C@H](C)[C@@H]1NC(=O)[C@H](C)NC(=O)[C@H]([C@@H](C)CC)NC(=O)[C@H](CCC(N)=O)NC(=O)[C@H](C)NC(=O)[C@H](CCCNC(=N)N)NC(=O)[C@H](C(C)C)NC(=O)[C@H](CC(C)C)NC(=O)[C@H](CCC(=O)O)NC(=O)[C@H](CCCNC(=N)N)NC(=O)CNC(=O)[C@@H](NC(=O)[C@H](CC(C)C)NC(=O)[C@H](CCCCN)NC(=O)[C@@H](NC(=O)[C@@H](NC(=O)[C@H](CCC(=O)O)NC(=O)[C@H](CCC(=O)O)NC(=O)[C@H](CCSC)NC(=O)[C@H](Cc2c[nH]c3ccccc23)NC(=O)[C@H](CO)NC(=O)[C@H](C)N)C(C)C)[C@@H](C)CC)CSSC[C@@H]2NC(=O)[C@@H](NC(=O)[C@H](CCCCN)NC(=O)[C@H](CC(N)=O)NC(=O)[C@H](C)NC(=O)[C@H](CC(C)C)NC(=O)[C@H](C)NC(=O)[C@H](CO)NC(=O)[C@H](Cc3ccc(O)cc3)NC(=O)[C@H](CC(C)C)NC(=O)[C@@H](N)Cc3ccc(/C(C)=N/OCCNC(=O)[C@H](CCCCN)NC(=O)CNC(=O)[C@@H]4CCCN4C(=O)CC[C@H](NC(=O)CCCCCCCCCCCCCC(=O)O)C(=O)O)cc3)CSSC[C@H](NC(=O)CNC(=O)[C@H](C(C)C)NC(=O)[C@H](Cc3c[nH]cn3)NC2=O)C(=O)N[C@@H]([C@@H](C)O)C(=O)N[C@@H](CCCCN)C(=O)N[C@@H](CCCNC(=N)N)C(=O)N[C@@H](CO)C(=O)N[C@@H](CC(C)C)C(=O)N[C@@H](C)C(=O)N[C@@H](CCCNC(=N)N)C(=O)N[C@@H](Cc2ccccc2)C(=O)N[C@H](C(=O)O)CSSC[C@@H](C(=O)NCC(=O)N[C@@H](CCSC)C(=O)N[C@@H](CO)C(=O)N[C@H](C(=O)N[C@@H](Cc2c[nH]c3ccccc23)C(=O)N[C@@H](CO)C(=O)O)[C@@H](C)O)NC1=O [AQ1-KGP-Glu^γ-C14-COOH] | 0.27
4 | CC[C@H](C)[C@@H]1NC(=O)[C@H](C)NC(=O)[C@H]([C@@H](C)CC)NC(=O)[C@H](CCC(N)=O)NC(=O)[C@H](C)NC(=O)[C@H](CCCNC(=N)N)NC(=O)[C@H](C(C)C)NC(=O)[C@H](CC(C)C)NC(=O)[C@H](CCC(=O)O)NC(=O)[C@H](CCCNC(=N)N)NC(=O)CNC(=O)[C@@H](NC(=O)[C@H](CC(C)C)NC(=O)[C@H](CCCCN)NC(=O)[C@@H](NC(=O)[C@@H](NC(=O)[C@H](CCC(=O)O)NC(=O)[C@H](CCC(=O)O)NC(=O)[C@H](CCSC)NC(=O)[C@H](Cc2c[nH]c3ccccc23)NC(=O)[C@H](CO)NC(=O)[C@H](C)N)C(C)C)[C@@H](C)CC)CSSC[C@@H]2NC(=O)[C@@H](NC(=O)[C@H](CCCCN)NC(=O)[C@H](CC(N)=O)NC(=O)[C@H](C)NC(=O)[C@H](CC(C)C)NC(=O)[C@H](C)NC(=O)[C@H](CO)NC(=O)[C@H](Cc3ccc(O)cc3)NC(=O)[C@H](CC(C)C)NC(=O)[C@@H](N)Cc3ccc(C(C)=NOCCNC(=O)[C@H](CCCCN)NC(=O)[C@H](CCCCN)NC(=O)CC[C@H](NC(=O)CCCCCCCCCCCCC(=O)O)C(=O)O)cc3)CSSC[C@H](NC(=O)CNC(=O)[C@H](C(C)C)NC(=O)[C@H](Cc3c[nH]cn3)NC2=O)C(=O)N[C@@H]([C@@H](C)O)C(=O)N[C@@H](CCCCN)C(=O)N[C@@H](CCCNC(=N)N)C(=O)N[C@@H](CO)C(=O)N[C@@H](CC(C)C)C(=O)N[C@@H](C)C(=O)N[C@@H](CCCNC(=N)N)C(=O)N[C@@H](Cc2ccccc2)C(=O)N[C@H](C(=O)O)CSSC[C@@H](C(=O)NCC(=O)N[C@@H](CCSC)C(=O)N[C@@H](CO)C(=O)N[C@H](C(=O)N[C@@H](Cc2c[nH]c3ccccc23)C(=O)N[C@@H](CO)C(=O)O)[C@@H](C)O)NC1=O [AQ1-KK-Glu^γ-C13-COOH] | 0.1
5 | CC[C@H](C)[C@@H]1NC(=O)[C@H](C)NC(=O)[C@H]([C@@H](C)CC)NC(=O)[C@H](CCC(N)=O)NC(=O)[C@H](C)NC(=O)[C@H](CCCNC(=N)N)NC(=O)[C@H](C(C)C)NC(=O)[C@H](CC(C)C)NC(=O)[C@H](CCC(=O)O)NC(=O)[C@H](CCCNC(=N)N)NC(=O)CNC(=O)[C@@H](NC(=O)[C@H](CC(C)C)NC(=O)[C@H](CCCCN)NC(=O)[C@@H](NC(=O)[C@@H](NC(=O)[C@H](CCC(=O)O)NC(=O)[C@H](CCC(=O)O)NC(=O)[C@H](CCSC)NC(=O)[C@H](Cc2c[nH]c3ccccc23)NC(=O)[C@H](CO)NC(=O)[C@H](C)N)C(C)C)[C@@H](C)CC)CSSC[C@@H]2NC(=O)[C@@H](NC(=O)[C@H](CCCCN)NC(=O)[C@H](CC(N)=O)NC(=O)[C@H](C)NC(=O)[C@H](CC(C)C)NC(=O)[C@H](C)NC(=O)[C@H](CO)NC(=O)[C@H](Cc3ccc(O)cc3)NC(=O)[C@H](CC(C)C)NC(=O)[C@@H](N)Cc3ccc(C(C)=NOCCNC(=O)[C@H](CCCCN)NC(=O)[C@H](CCCCN)NC(=O)[C@H](CO)NC(=O)[C@H](C)NC(=O)CNC(=O)[C@H](CO)NC(=O)[C@H](C)NC(=O)CNC(=O)CC[C@H](NC(=O)CCCCCCCCCCCCC(=O)O)C(=O)O)cc3)CSSC[C@H](NC(=O)CNC(=O)[C@H](C(C)C)NC(=O)[C@H](Cc3c[nH]cn3)NC2=O)C(=O)N[C@@H]([C@@H](C)O)C(=O)N[C@@H](CCCCN)C(=O)N[C@@H](CCCNC(=N)N)C(=O)N[C@@H](CO)C(=O)N[C@@H](CC(C)C)C(=O)N[C@@H](C)C(=O)N[C@@H](CCCNC(=N)N)C(=O)N[C@@H](Cc2ccccc2)C(=O)N[C@H](C(=O)O)CSSC[C@@H](C(=O)NCC(=O)N[C@@H](CCSC)C(=O)N[C@@H](CO)C(=O)N[C@H](C(=O)N[C@@H](Cc2c[nH]c3ccccc23)C(=O)N[C@@H](CO)C(=O)O)[C@@H](C)O)NC1=O [AQ1-KKSAGSAG-Glu^γ-C13-COOH] | 0.27
